Some test systems named below: 786-0 renal; A498 renal; ACHN renal; BT-549 breast; HOP-62 NSCLC; HT29 colon; MDA-N; RXF 393 renal; SF-295 CNS; SF-539 CNS; HS 578T breast.
Test in all cases: DTP human tumour cell line panel, 48 h

Our source for the TGI and GI50 values is PubChem BioAssay (NCI).

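These data come from cells grown in 96-well plates and exposed to compound for 48 hours at five concentrations. GI50 is the concentration that inhibits growth by half. TGI is the concentration that stops growth completely.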 Bounds are passed on as bounds.

Turning to `NNC(=O)Cn1c2ccc(Br)cc2c2nc3ccccc3nc21`, the TGI (commonly the concentration giving total growth inhibition) with 786-0 renal is more than 100 µM; in the test with A498 renal, more than 100 µM; in the test with ACHN renal it was more than 100 µM; with BT-549 breast, more than 100 µM; in the test with HOP-62 NSCLC, 89.8 µM; in the test on HT29 colon, more than 100 µM. Further, the total growth inhibition concentration (TGI) in the test on MDA-N, with RXF 393 renal, in the test on SF-295 CNS and with SF-539 CNS was more than 100 µM in each case.
For `OC(CCNCc1ccccc1)c1ccc2ccccc2c1` (stereo not given), the TGI in the test on 786-0 renal worked out at 35.9 µM; with A498 renal, 40 µM; in the test on ACHN renal, 41.5 µM; with HOP-62 NSCLC, 33.5 µM; in the test on HS 578T breast it was 47.7 µM; with HT29 colon it was 61.7 µM. Besides, the values for the TGI in the test with RXF 393 renal, in the test with SF-295 CNS and in the test with SF-539 CNS were 37.1 µM, 63.9 µM and 31.9 µM, respectively.
Take `CC(=O)Nc1ccc(OC2=CCN(C)CC2)cc1`: the TGI with 786-0 renal, in the test on ACHN renal, in the test with BT-549 breast, with HOP-62 NSCLC, in the test with HS 578T breast and with HT29 colon was more than 100 µM each time. For the same molecule, the TGI with MDA-N, in the test on RXF 393 renal and in the test with SF-295 CNS was more than 100 µM each time.
`c1ccc2c(c1)CCc1c-2n(CCN2CCOCC2)c2ccccc12`: the TGI in the test on 786-0 renal is more than 100 µM; in the test on ACHN renal, more than 100 µM; in the test with BT-549 breast, more than 100 µM; in the test with HOP-62 NSCLC, more than 100 µM; with HS 578T breast it was more than 100 µM; in the test on HT29 colon, 25.9 µM. Besides, the TGI with MDA-N, with SF-295 CNS and in the test with SF-539 CNS was more than 100 µM each time.
As for `COc1ccc2c(c1)c(CC(=O)O)c(C)n2C(=O)c1ccc(Cl)cc1`, the TGI in the test with 786-0 renal, in the test on ACHN renal, in the test on HOP-62 NSCLC, in the test with HS 578T breast, in the test with HT29 colon and in the test with MDA-N was more than 100 µM throughout. Also, the TGI in the test with SF-295 CNS and in the test with SF-539 CNS was more than 100 µM in each case.
Take `C[C@@H]1CC[C@H]2C(C(O)CCCCC(O)C3=C(C(F)(F)F)O[C@@H]4O[C@@]5(C)CC[C@H]6[C@H](C)CC[C@@H]3[C@@]46OO5)=C(C(F)(F)F)O[C@@H]3O[C@@]4(C)CC[C@@H]1[C@]32OO4` (stereo not given in full): the GI50 (usually the concentration giving 50% growth inhibition) in the test with A498 renal is 45.6 µM; in the test with ACHN renal, 13.9 µM; in the test with BT-549 breast, 80.5 µM; with HOP-62 NSCLC, 36.9 µM; in the test on HS 578T breast it was 37.8 µM; with HT29 colon, 13.6 µM. Besides, the results for the GI50 in the test on RXF 393 renal, in the test with SF-295 CNS and in the test with SF-539 CNS were 9.06 µM, 53.7 µM and 90.7 µM, respectively. Besides, the TGI in the test on A498 renal, in the test with ACHN renal, in the test on BT-549 breast, in the test on HOP-62 NSCLC, in the test on HS 578T breast and with HT29 colon was more than 100 µM in each case. Further, the TGI in the test with RXF 393 renal, with SF-295 CNS and in the test on SF-539 CNS was more than 100 µM in each case.
Consider `Nc1ccccc1CC(O)C(=O)O` (stereo not given), for which the TGI in the test with 786-0 renal, in the test with A498 renal, in the test on ACHN renal, in the test on HOP-62 NSCLC, with HS 578T breast and in the test with HT29 colon was more than 100 µM throughout. In addition, the TGI with MDA-N, in the test with RXF 393 renal, in the test with SF-295 CNS and with SF-539 CNS was more than 100 µM each time.
Take `Nc1ncnc2c1nnn2C1CCC(CP(=O)(O)O)C1` (stereo not given): the TGI with 786-0 renal, in the test on ACHN renal, in the test with HOP-62 NSCLC, in the test on HT29 colon, with MDA-N and in the test on RXF 393 renal was more than 100 µM throughout. Further, the TGI with SF-295 CNS and in the test on SF-539 CNS was more than 100 µM each time.
Regarding `C/C(Nc1ccc(F)cc1)=C1/CCOC1=O`, the TGI in the test with 786-0 renal, with A498 renal, in the test with ACHN renal, with BT-549 breast, in the test with HOP-62 NSCLC and with HS 578T breast was more than 100 µM in each case. Moreover, the concentration for total growth inhibition (TGI) in the test on HT29 colon, with RXF 393 renal, in the test with SF-295 CNS and in the test with SF-539 CNS was more than 100 µM each time.
As for `CN(C)c1nc2oc(-c3ccccc3)c(-c3ccccc3)c2c2nnnn12`, the TGI in the test on 786-0 renal, in the test on A498 renal, with ACHN renal, in the test on HS 578T breast, in the test with HT29 colon and in the test on RXF 393 renal was more than 100 µM each time. Also, the TGI with SF-295 CNS and with SF-539 CNS was more than 100 µM throughout.
Take `CC1(C)CC(C)(C)C1=NNC(N)=O`: the total growth inhibition concentration (TGI) in the test with 786-0 renal, in the test with A498 renal, with ACHN renal, with HOP-62 NSCLC, in the test with HS 578T breast and in the test on HT29 colon was more than 100 µM each time. The TGI in the test on MDA-N, with RXF 393 renal, with SF-295 CNS and in the test with SF-539 CNS was more than 100 µM each time.
Take `CCOC(=O)C(NC(=O)CC)(Nc1cc(C)on1)C(F)(F)F` (stereo not given): the TGI in the test with 786-0 renal, in the test with ACHN renal, in the test on BT-549 breast, with HS 578T breast, in the test on HT29 colon and with MDA-N was more than 100 µM each time. Moreover, the TGI in the test with RXF 393 renal and with SF-539 CNS was more than 100 µM each time.
For `CC1(c2ccc[n+](Cc3ccccc3)c2)OCCO1`, the TGI in the test with 786-0 renal, in the test with A498 renal, with ACHN renal, in the test with HOP-62 NSCLC, with HT29 colon and with RXF 393 renal was more than 100 µM in each case. Further, the TGI in the test on SF-295 CNS and in the test on SF-539 CNS was more than 100 µM each time.
With `CC(C)(Oc1ccc(Cl)cc1)C(=O)N(C(=O)N1CCC(c2ccccc2)CC1)c1ccccc1`, the TGI with 786-0 renal was more than 100 µM; in the test on A498 renal, more than 100 µM; in the test with ACHN renal, more than 100 µM; with BT-549 breast, more than 95.8 µM; in the test with HOP-62 NSCLC it was more than 100 µM; in the test on HS 578T breast, more than 100 µM. The TGI in the test on HT29 colon, with RXF 393 renal, with SF-295 CNS and in the test with SF-539 CNS was more than 100 µM throughout.
